Data as given in patent publication EP4635969A1, “NOVEL GLUCOCORTICOID, METHOD FOR PREPARING SAME, AND USE THEREOF” (Tianjin Pharmaceutical Biotechnology Co., Ltd., priority 2022, dated 2024).

Biological target: T1, glucocorticoid receptor (GR) (Homo sapiens, UniProt P04150)
T1 sequence (P04150 521-777): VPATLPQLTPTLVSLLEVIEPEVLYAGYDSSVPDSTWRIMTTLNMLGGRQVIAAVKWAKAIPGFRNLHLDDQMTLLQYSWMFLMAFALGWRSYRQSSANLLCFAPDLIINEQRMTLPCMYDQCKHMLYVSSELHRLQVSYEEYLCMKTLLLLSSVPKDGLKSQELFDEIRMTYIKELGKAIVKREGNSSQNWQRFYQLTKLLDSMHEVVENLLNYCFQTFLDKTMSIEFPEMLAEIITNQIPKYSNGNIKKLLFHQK
Experiment: Assay for agonist activity on glucocorticoid receptor (luciferase reporter, HEK293 cells transfected with pBIND-GR plasmid)
Type: cell-based
Conditions: HEK293 cells transfected with pBIND-GR, luciferase signal; read-out: GR agonist EC50
Procedure: Pharmacological Example 1: Assay for Agonist Activity on Glucocorticoid Receptor (GR)
The test compounds were subjected to a 4-fold serial dilution starting from an initial concentration of 10 µ M, generating a 10-point concentration gradient with duplicate wells for each concentration. The blank control consisted of 0.1 % DMSO.
The HEK293 stable cell line […] transfected with glucocorticoid receptor (GR) (ICE Bioscience, Lot No. TYP-20220519) was cultured in Dulbecco's Modified Eagle Medium (DMEM) supplemented with 10% fetal bovine serum (FBS) and 200 µ g/ml Hygromycin B in a cell incubator containing 5% CO2 at 37 °C. The spent medium was aspirated and the cells were washed once with phosphate-buffered saline (PBS). Then, 1 mL of TrypLE™ Express solution was added, and the cells were incubated at 37 °C for approximately 2 min. When the cells detached from the bottom of the cell culture dish, approximately 5 mL of pre-warmed complete medium at 37 °C was added. The cell suspension was gently pipetted with a pipette to dissociate clumped cells. The cell suspension was transferred to a sterile centrifuge tube and centrifuged at 1000 rpm for 5 min to pellet the cells for experiments or subculture.
HEK293 cells were digested and seeded into 6-cm culture dishes. The pBIND-GR plasmid was transfected into the HEK293 cells using a transfection reagent, resulting in HEK293 cells successfully transfected with the pBIND-GR plasmid. The cells were resuspended in phenol red-free DMEM medium containing 5% charcoal-stripped serum, counted, and then seeded into 96-well plates. The test compounds were added, and the plates were then incubated in an incubator. The luminescence signal values were measured using a multimode microplate reader following the instructions of the luciferase assay kit. The EC50 values of each test compound were calculated using the nonlinear fitting formula with GraphPad Prism 8.0 software.

Row | SMILES | EC50
1 | C[C@]12C=CC(=O)C=C1CC[C@@H]1[C@@H]2[C@@H](O)C[C@@]2(C)[C@H]1C[C@H]1OC(c3ccc(CSC4CCOC4=O)cc3)O[C@]12C(=O)CO (stereo partly drawn) [Compound 29, (6aR,6bS, 7S,8aS,8bS,11aR,12aS,12bS)-7-Hydroxy-8b-(2-hydroxyacetyl)-6a,8a-dimethyl-10-(4-(( (2-oxotetrahydrofuran-3-yl)thio)methyl)phenyl)-1,2,6a,6b,7,8,8a,8b,11a,12,12a,12b-dodecahydro-4H-naphtho[2',1':4,5]indeno[1,2-d][1,3]dioxol-4-one] | 3.66 nM
2 | C[C@]12C=CC(=O)C=C1CC[C@H]1[C@@H]3C[C@H]4OC(c5ccc(CSC6COC(=O)C6)cc5)O[C@@]4(C(=O)CCl)[C@@]3(C)C[C@H](O)[C@@]12Cl (stereo partly drawn) [Compound 39, (6aS,6bR,7S,8aS,8bS,11aR,12aS,12bS)-6b-Chloro-8b-(2-chloroacetyl)-7-hydroxy-6a,8a-dimethyl-10-(4-(((5-oxotetrahydrofuran-3-yl)thio)methyl)phenyl)-l,2,6a,6b,7,8,8a,8b,11a,12,12a,12b-dode cahydro-4H-naphtho[2',1':4,5]indeno[1,2-d][1,3]dioxol-4-one] | 3.31 nM
3 | C[C@]12C=CC(=O)C=C1CC[C@H]1[C@@H]3C[C@H]4OC(c5ccc(CSC6CCOC6=O)cn5)O[C@@]4(C(=O)CO)[C@@]3(C)C[C@H](O)[C@@]12F (stereo partly drawn) [Compound 50, (6aS,6bR,7S,8aS,8bS,11aR,12aS,12bS)-6b-Fluoro-7-hydroxy-8b-(2-hydroxyacetyl)-6a,8a-dimethyl-10-(5-(((2-oxotetrahydrofuran-3-yl)thio)methyl)pyridin-2-yl)-1,2,6a,6b,7,8,8a,8b,11a,12,12a,12 b-dodecahydro-4H-naphtho[2',1':4,5]indeno[1,2-d][1,3]dioxol-4-one] | 0.98 nM
4 | C[C@]12C=CC(=O)C=C1[C@@H](F)C[C@H]1[C@@H]3C[C@H]4OC(C5CCN(C(=O)C6COC(=O)C6)CC5)O[C@@]4(C(=O)CO)[C@@]3(C)C[C@H](O)[C@@]12F (stereo partly drawn) [Compound 1, (2S,6aS,6bR,7S,8aS,8bS,11aR,12aS,12bS)-2,6b-Difluoro-7-hydroxy-8b-(2-hydroxyacetyl)-6a,8a-dimethyl-10-(1-(5-oxotetrahydrofuran-3-carbonyl)piperidin-4-yl)-1,2,6a,6b,7,8,8a,8b,11a,12,12a,1 2b-dodecahydro-4H-naphtho[2',1':4,5]indeno[1,2-d][1,3]dioxol-4-one] | 20.3 nM
5 | C[C@]12C=CC(=O)C=C1CC[C@H]1[C@@H]3C[C@H]4OC(c5ccc(CC6CCOC6=O)cc5)O[C@@]4(C(=O)CO)[C@@]3(C)C[C@H](O)[C@@]12F (stereo partly drawn) [Compound 43, (6aS,6bR,7S,8aS,8bS,11aR,12aS,12bS)-6b-Fluoro-7-hydroxy-8b-(2-hydroxyacetyl)-6a,8a-dimethyl-10-(4-((2-oxotetrahydrofuran-3-yl)methyl)phenyl)-1,2,6a,6b,7,8,8a,8b,11a,12,12a,12b-dodecah ydro-4H-naphtho[2',1':4,5]indeno[1,2-d][1,3]dioxol-4-one] | 7.71 nM
6 | C[C@]12C=CC(=O)C=C1CC[C@H]1[C@@H]3C[C@H]4OC(C5CCN(CC6CCOC6=O)CC5)O[C@@]4(C(=O)CO)[C@@]3(C)C[C@H](O)[C@@]12F (stereo partly drawn) [Compound 44, (6aS,6bR,7S,8aS,8bS,11aR,12aS,12bS)-6b-Fluoro-7-hydroxy-8b-(2-hydroxyacetyl)-6a,8a-dimethyl-10-(1-((2-oxotetrahydrofuran-3-yl)methyl)piperidin-4-yl)-1,2,6a,6b,7,8,8a,8b,11a,12,12a,12b-d odecahydro-4H-naphtho[2',1':4,5]indeno[1,2-d][1,3]dioxol-4-one] | 15.1 nM
7 | C[C@]12C=CC(=O)C=C1[C@@H](F)C[C@H]1[C@@H]3C[C@H]4OC(c5cnc(CSC6CCOC6=O)nc5)O[C@@]4(C(=O)CO)[C@@]3(C)C[C@H](O)[C@@]12F (stereo partly drawn) [Compound 52, (2S,6aS,6bR,7S,8aS,8bS,11aR,12aS,12bS)-2,6b-Difluoro-7-hydroxy-8b-(2-hydroxyacetyl)-6a,8a-dimethyl-10-(2-(((2-oxotetrahydrofuran-3-yl)thio)methyl)pyrimidin-5-yl)-1,2,6a,6b,7,8,8a,8b,11a, 12,12a,12b-dodecahydro-4H-naphtho[2',1':4,5]indeno[1,2-d][1,3]dioxol-4-one] | 6.92 nM
8 | C[C@]12C=CC(=O)C=C1[C@@H](F)C[C@H]1[C@@H]3C[C@H]4OC(c5ccc(NCC6CCOC6=O)cc5)O[C@@]4(C(=O)CO)[C@@]3(C)C[C@H](O)[C@@]12F (stereo partly drawn) [Compound 15, (2S,6aS,6bR,7S,8aS,8bS,11aR,12aS,12bS)-2,6b-Difluoro-7-hydroxy-8b-(2-hydroxyacetyl)-6a,8a-dimethyl-10-(4-(((2-oxotetrahydrofuran-3-yl)methyl)amino)phenyl)-1,2,6a,6b,7,8,8a,8b,11a,12,12 a,12b-dodecahydro-4H-naphtho[2',1':4,5]indeno[1,2-d][1,3]dioxol-4-one] | 6.12 nM
9 | C[C@]12C=CC(=O)C=C1[C@@H](F)C[C@H]1[C@@H]3C[C@H]4OC(c5ccc(CSC6CCOC6=O)cn5)O[C@@]4(C(=O)CO)[C@@]3(C)C[C@H](O)[C@@]12F (stereo partly drawn) [Compound 49, (2S,6aS,6bR,7S,8aS,8bS,11aR,12aS,12bS)-2,6b-Difluoro-7-hydroxy-8b-(2-hydroxyacetyl)-6a,8a-dimethyl-10-(5-(((2-oxotetrahydrofuran-3-yl)thio)methyl)pyridin-2-yl)-1,2,6a,6b,7,8,8a,8b,11a,12, 12a,12b-dodecahydro-4H-naphtho[2',1':4,5]indeno[1,2-d][1,3]dioxol-4-one] | 1.12 nM
10 | C[C@]12C=CC(=O)C=C1CC[C@@H]1[C@@H]2[C@@H](O)C[C@@]2(C)[C@H]1C[C@H]1OC(c3ccc(CSC4COC(=O)C4)cc3C#N)O[C@]12C(=O)CO (stereo partly drawn) [Compound 32, 2-((6aR,6bS,7S,8aS,8bS,11aR,12aS,12bS)-7-Hydroxy-8b-(2-hydroxyacetyl)-6a,8a-dimethyl-4-oxo-2,4,6a,6b,7,8,8a,8b,11a,12,12a,12b-dodecahydro-1H-naphtho[2',1':4,5]indeno[1,2-d][1,3]dioxol-10-yl)-5-(((5-oxotetrahydrofuran-3-yl)thio)methyl)benzonitrile] | 3.67 nM
11 | C[C@]12C=CC(=O)C=C1CC[C@@H]1[C@@H]2[C@@H](O)C[C@@]2(C)[C@H]1C[C@H]1OC(c3ccc(CNC4COC(=O)C4)cc3)O[C@]12C(=O)CO (stereo partly drawn) [Compound 33, (6aR,6bS, 7S,8aS,8bS,11aR,12aS,12bS)-7-Hydroxy-8b-(2-hydroxyacetyl)-6a,8a-dimethyl-10-(4-(( (5-oxotetrahydrofuran-3-yl)amino)methyl)phenyl)-1,2,6a,6b,7,8,8a,8b,11a,12,12a,12b-dodecahydr o-4H-naphtho[2',1':4,5]indeno[1,2-d][1,3]dioxol-4-one] | 4.38 nM
12 | C[C@]12C=CC(=O)C=C1CC[C@H]1[C@@H]3C[C@H]4OC(c5cnc(CSC6CCOC6=O)nc5)O[C@@]4(C(=O)CO)[C@@]3(C)C[C@H](O)[C@@]12Cl (stereo partly drawn) [Compound 54, (6aS,6bR,7S,8aS,8bS,11aR,12aS,12bS)-6b-Chloro-7-hydroxy-8b-(2-hydroxyacetyl)-6a,8a-dimethyl-10-(2-(((2-oxotetrahydrofuran-3-yl)thio)methyl)pyrimidin-5-yl)-1,2,6a,6b,7,8,8a,8b,11a,12,12a, 12b-dodecahydro-4H-naphtho[2',1':4,5]indeno[1,2-d][1,3]dioxol-4-one] | 5.64 nM
